Test results: patent US10143704B2, “Methods for treating cancer” (Epizyme, Inc., priority 2013, dated 2018)

Tests used:
MLL-r cells = experiment: Pre-clinical study of EPZ-5676: methyl mark inhibition and cell killing; format: cell-based; details: pre-clinical study plots, FIGS. 3A-3D
[1] = tested on: patients with MLL-r and MLL-PTD; experiment: Phase 1 dose escalation/expansion study of EPZ-5676 in leukemia patients; format: in vivo, human
Protocol: FIG. 1 is a summary of Phase 1 dose escalation study of EPZ-5676. […] The expansion stage of a Phase 1 study is enrolling adult patients with MLL-r and MLL-PTD who are being treated with 90 mg/m^2/day with uninterrupted administration.

Question: How did the “effect of target methyl mark inhibition on cancer cells” value (MLL-r cells) turn out when `CC(C)N(C[C@H]1O[C@@H](n2cnc3c(N)ncnc32)[C@H](O)[C@@H]1O)[C@H]1C[C@@H](CCc2nc3cc(C(C)(C)C)ccc3[nH]2)C1` [Compound A2, (2R,3R,4S,5R)-2-(6-amino-9H-purin-9-yl)-5-((((1r,3S)-3-(2-(5-(tert-butyl)-1H-benzo[d]imidazol-2yl)ethyl)cyclobutyl)(isopropyl)amino)methyl)tetrahydrofuran-3,4-diol] was run?
Answer: selective killing of genetically defined cancer cells

Question: What about the “safety: drug-related treatment discontinuations” value ([1]; adult patients with MLL-r and MLL-PTD, 90 mg/m^2/day uninterrupted administration, expansion stage of Phase 1) of the same compound?
Answer: no drug-related treatment discontinuations

Question: What about the “effect on leukemic cells in patients (micrographs)” value ([1]; patients with MLL-r, FIGS. 8A-8F) of the same compound?
Answer: differentiation effect
